Reference: paper PMC11233931, “Remodeling tumor‐associated macrophage for anti‐cancer effects by rational design of irreversible inhibition of mitogen‐activated protein kinase‐activated protein kinase 2” (MedComm, 2024)

Key:
Assay in all cases: Eurofins kinase selectivity profile against 380 other human recombinant kinases (Table S2)
Format in all cases: biochemical
[1] = biological target: T1, 380 human recombinant protein kinases (Homo sapiens, UniProt P20794); conditions: MAK(h), read-out: Inhibition rate
T1 construct: purchased Eurofins (Celle Lévescault)
T1 sequence (P20794 1-623): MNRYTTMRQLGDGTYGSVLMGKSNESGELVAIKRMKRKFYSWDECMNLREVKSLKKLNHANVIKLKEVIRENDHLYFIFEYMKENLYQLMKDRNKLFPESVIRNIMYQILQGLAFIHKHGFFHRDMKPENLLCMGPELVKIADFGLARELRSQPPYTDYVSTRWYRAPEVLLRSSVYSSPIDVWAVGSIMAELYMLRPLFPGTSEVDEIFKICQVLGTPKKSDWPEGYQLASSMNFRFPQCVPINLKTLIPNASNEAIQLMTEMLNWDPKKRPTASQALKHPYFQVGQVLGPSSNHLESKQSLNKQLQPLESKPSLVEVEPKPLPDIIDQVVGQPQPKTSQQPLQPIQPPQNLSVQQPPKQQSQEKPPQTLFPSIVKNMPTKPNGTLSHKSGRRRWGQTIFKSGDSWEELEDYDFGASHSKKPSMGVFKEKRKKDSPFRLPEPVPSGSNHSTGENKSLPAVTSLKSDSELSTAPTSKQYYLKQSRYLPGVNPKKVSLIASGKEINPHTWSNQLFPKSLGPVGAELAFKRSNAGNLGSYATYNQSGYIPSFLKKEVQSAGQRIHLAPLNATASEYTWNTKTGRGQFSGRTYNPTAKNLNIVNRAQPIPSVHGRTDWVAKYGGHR
Outline: (§1)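 Commercial selectivity screen of the test compound against a panel of 380 human recombinant protein kinases, run by an outside contractor at several compound concentrations to check whether its potency was specific for MK2.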

[2] = biological target: T2, 380 human recombinant protein kinases (Homo sapiens, UniProt P29597); conditions: TYK2(h), read-out: Inhibition rate (%)
T2 construct: purchased Eurofins (Celle Lévescault)
T2 sequence (P29597 whole entry): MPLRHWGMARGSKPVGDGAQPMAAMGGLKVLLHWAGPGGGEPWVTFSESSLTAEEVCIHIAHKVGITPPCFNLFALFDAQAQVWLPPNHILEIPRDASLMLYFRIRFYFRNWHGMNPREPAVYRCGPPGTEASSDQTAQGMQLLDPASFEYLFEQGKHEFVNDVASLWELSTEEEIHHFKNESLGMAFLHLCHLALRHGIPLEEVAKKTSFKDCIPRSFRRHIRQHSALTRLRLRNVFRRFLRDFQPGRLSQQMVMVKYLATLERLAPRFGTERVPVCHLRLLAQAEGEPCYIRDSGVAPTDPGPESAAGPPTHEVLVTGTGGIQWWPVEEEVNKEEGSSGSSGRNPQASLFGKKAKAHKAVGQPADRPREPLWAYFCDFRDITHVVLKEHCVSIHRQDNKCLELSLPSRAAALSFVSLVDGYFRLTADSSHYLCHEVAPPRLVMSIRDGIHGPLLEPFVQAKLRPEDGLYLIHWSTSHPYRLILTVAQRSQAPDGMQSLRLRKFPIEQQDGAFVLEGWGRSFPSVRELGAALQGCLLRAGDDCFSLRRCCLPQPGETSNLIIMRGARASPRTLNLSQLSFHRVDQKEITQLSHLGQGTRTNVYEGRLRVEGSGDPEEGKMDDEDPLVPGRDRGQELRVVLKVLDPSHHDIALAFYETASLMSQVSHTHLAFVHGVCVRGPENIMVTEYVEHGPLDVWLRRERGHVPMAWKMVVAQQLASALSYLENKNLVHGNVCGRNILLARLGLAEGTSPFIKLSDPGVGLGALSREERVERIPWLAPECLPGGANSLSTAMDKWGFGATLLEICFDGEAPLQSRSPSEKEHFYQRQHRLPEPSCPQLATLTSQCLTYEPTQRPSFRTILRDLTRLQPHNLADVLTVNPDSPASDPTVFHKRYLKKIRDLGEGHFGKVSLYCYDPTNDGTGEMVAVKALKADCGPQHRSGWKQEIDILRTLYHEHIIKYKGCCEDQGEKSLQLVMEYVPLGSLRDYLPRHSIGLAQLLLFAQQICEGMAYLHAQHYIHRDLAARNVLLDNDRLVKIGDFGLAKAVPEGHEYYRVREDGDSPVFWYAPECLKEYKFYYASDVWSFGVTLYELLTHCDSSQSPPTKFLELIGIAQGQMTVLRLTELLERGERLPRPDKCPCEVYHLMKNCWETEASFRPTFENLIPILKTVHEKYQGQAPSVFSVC
Outline: as §1

[3] = biological target: T3, 380 human recombinant protein kinases (Homo sapiens, UniProt Q13554); conditions: CaMKIIβ(h), read-out: Inhibition rate
T3 construct: purchased Eurofins (Celle Lévescault)
T3 sequence (Q13554 whole entry): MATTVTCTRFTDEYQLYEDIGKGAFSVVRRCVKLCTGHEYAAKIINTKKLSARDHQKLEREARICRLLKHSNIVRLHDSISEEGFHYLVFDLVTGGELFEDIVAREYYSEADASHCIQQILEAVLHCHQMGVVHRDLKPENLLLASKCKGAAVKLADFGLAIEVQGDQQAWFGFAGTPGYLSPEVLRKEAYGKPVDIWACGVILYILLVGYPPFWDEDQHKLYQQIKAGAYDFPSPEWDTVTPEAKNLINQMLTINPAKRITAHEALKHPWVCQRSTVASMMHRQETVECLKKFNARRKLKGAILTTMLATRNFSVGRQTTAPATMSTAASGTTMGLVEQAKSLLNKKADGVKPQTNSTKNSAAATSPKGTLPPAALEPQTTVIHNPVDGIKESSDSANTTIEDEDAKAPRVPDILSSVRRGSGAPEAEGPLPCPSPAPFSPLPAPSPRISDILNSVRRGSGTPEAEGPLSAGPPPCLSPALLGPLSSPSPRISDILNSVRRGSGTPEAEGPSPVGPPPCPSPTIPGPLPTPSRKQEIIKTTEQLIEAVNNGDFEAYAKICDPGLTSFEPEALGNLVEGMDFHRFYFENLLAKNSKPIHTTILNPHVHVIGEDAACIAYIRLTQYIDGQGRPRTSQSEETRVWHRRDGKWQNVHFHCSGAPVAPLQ
Outline: as §1

[4] = biological target: T4, 380 human recombinant protein kinases (Homo sapiens, UniProt P10721); conditions: cKit(h), read-out: Inhibition rate
T4 construct: purchased Eurofins (Celle Lévescault)
T4 sequence (P10721 26-976): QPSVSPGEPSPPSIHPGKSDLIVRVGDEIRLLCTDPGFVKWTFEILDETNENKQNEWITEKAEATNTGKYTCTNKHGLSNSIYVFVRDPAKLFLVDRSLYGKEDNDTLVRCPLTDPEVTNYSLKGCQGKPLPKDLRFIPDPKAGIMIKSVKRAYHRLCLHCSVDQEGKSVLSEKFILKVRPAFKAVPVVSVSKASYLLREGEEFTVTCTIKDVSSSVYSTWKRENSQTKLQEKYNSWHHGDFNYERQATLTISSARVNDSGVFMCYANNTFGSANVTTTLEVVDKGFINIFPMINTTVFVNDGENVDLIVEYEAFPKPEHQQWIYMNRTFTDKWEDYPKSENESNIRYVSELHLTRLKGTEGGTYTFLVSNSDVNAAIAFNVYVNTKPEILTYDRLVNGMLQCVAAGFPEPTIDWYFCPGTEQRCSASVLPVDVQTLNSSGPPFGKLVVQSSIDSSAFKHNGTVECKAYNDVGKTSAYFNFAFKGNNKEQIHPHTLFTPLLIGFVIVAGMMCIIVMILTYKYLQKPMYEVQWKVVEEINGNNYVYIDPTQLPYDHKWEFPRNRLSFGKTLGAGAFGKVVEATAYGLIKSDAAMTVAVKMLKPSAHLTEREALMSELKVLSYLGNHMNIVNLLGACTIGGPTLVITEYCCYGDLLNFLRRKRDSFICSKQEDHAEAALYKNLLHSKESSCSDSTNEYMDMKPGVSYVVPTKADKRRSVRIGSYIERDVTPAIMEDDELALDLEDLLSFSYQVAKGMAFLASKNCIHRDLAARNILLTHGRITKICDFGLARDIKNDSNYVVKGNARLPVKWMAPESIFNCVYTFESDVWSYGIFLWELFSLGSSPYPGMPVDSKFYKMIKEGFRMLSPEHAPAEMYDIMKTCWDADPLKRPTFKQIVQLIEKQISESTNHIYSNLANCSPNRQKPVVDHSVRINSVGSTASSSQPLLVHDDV
Outline: as §1

[5] = biological target: T5, 380 human recombinant protein kinases (Homo sapiens, UniProt Q6PHR2); conditions: ULK3(h), read-out: Inhibition rate (%)
T5 construct: purchased Eurofins (Celle Lévescault)
T5 sequence (Q6PHR2 1-472): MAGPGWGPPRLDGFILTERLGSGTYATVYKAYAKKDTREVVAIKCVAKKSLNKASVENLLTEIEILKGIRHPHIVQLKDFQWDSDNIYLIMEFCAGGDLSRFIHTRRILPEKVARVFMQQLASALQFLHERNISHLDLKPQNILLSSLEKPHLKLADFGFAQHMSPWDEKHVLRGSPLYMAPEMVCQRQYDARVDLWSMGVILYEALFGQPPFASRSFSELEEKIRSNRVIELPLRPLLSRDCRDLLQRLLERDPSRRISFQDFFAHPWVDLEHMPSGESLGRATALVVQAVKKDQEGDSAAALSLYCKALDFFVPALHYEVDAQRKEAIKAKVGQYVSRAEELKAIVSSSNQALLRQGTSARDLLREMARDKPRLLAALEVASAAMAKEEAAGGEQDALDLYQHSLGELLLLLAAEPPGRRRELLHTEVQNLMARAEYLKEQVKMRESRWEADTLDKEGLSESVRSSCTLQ
Outline: as §1

[6] = biological target: T6, 380 human recombinant protein kinases (Homo sapiens, UniProt Q9Y2U5); conditions: MEKK2(h), read-out: Inhibition rate
T6 construct: purchased Eurofins (Celle Lévescault)
T6 sequence (Q9Y2U5 1-619): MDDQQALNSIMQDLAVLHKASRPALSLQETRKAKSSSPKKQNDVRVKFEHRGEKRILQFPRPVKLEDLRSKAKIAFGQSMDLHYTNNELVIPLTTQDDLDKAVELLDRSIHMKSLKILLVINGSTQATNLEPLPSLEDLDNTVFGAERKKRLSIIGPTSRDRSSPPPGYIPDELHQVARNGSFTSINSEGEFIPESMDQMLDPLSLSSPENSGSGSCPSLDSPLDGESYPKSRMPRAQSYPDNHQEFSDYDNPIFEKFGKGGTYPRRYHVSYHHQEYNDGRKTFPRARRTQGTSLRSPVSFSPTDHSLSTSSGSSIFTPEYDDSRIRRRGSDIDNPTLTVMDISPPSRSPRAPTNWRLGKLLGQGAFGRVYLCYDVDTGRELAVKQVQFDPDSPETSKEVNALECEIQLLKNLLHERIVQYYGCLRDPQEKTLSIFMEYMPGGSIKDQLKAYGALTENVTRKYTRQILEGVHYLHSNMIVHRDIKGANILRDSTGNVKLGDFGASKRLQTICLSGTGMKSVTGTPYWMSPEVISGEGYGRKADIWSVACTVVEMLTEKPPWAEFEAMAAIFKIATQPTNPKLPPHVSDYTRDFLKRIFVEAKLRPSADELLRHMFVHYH
Outline: as §1

[7] = biological target: T7, 380 human recombinant protein kinases (Homo sapiens, UniProt O95819); conditions: MAP4K4(h), read-out: Inhibition rate
T7 construct: purchased Eurofins (Celle Lévescault)
T7 sequence (O95819 whole entry): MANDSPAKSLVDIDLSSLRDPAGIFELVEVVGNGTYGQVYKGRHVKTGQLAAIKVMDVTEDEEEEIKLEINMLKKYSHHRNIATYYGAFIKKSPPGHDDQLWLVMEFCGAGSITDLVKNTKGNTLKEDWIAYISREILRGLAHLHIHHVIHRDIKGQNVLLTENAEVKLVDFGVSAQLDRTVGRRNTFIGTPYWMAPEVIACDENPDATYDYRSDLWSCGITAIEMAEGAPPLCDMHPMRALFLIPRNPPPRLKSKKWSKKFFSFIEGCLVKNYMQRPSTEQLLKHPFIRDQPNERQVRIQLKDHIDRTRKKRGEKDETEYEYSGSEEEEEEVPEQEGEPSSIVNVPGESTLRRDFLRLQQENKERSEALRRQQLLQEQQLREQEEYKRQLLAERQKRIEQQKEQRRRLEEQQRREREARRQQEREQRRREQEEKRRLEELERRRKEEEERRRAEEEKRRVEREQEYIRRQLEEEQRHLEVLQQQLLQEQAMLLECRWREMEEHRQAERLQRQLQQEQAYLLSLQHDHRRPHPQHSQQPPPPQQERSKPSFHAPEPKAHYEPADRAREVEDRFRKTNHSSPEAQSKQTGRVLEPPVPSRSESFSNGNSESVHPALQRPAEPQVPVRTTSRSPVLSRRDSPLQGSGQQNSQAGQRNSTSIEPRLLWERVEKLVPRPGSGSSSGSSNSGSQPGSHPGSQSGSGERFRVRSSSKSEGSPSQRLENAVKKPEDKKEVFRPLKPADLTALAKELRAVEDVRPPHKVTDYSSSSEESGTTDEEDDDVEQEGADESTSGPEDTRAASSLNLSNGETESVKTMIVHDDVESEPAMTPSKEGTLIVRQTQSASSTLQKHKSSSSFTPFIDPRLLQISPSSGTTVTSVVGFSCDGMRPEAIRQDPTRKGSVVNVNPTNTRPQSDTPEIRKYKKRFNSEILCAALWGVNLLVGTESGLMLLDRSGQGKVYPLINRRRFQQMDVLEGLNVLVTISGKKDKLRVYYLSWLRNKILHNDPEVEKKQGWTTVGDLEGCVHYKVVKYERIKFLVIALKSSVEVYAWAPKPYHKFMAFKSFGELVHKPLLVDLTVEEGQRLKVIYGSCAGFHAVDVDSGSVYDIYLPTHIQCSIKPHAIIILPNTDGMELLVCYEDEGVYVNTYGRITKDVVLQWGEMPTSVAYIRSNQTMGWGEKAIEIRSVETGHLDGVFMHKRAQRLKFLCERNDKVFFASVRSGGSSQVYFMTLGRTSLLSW
Outline: as §1

Q: Which inhibition at 0.01 µM ([1]; 10 nM) does the source give for `C=CC(=O)Nc1cc(-c2cc(-c3cc4c([nH]3)CCNC4=O)ccn2)ccc1OC(F)(F)F` [compound 11] here?
A: -9%

Q: What about the inhibition at 0.1 µM ([1]; 100 nM) of the same compound?
A: -1%

Q: What about the inhibition at 1 µM ([1]; 1000 nM) of the same compound?
A: -2%

Q: What about the inhibition at 0.01 µM ([2]; 10 nM) of the same compound?
A: 1%

Q: What about the inhibition at 0.1 µM ([2]; 100 nM) of the same compound?
A: 10%

Q: And the inhibition at 1 µM ([2]; 1000 nM)?
A: 14%

Q: What about the inhibition at 0.01 µM ([3]; 10 nM) of the same compound?
A: -1%

Q: And the inhibition at 0.1 µM ([3]; 100 nM)?
A: 9%

Q: And the inhibition at 1 µM ([3]; 1000 nM)?
A: 14%

Q: What about the inhibition at 0.01 µM ([4]; 10 nM) of the same compound?
A: 1%

Q: And the inhibition at 0.1 µM ([4]; 100 nM)?
A: -14%

Q: What about the inhibition at 1 µM ([4]; 1000 nM) of the same compound?
A: 9%

Q: What about the inhibition at 0.01 µM ([5]; 10 nM) of the same compound?
A: 8%

Q: What about the inhibition at 0.1 µM ([5]; 100 nM) of the same compound?
A: 3%

Q: And the inhibition at 1 µM ([5]; 1000 nM)?
A: -4%

Q: What about the inhibition at 0.01 µM ([6]; 10 nM) of the same compound?
A: -3%

Q: And the inhibition at 0.1 µM ([6]; 100 nM)?
A: 2%

Q: And the inhibition at 1 µM ([6]; 1000 nM)?
A: -2%

Q: What about the inhibition at 0.01 µM ([7]; 10 nM) of the same compound?
A: -11%

Q: What about the inhibition at 0.1 µM ([7]; 100 nM) of the same compound?
A: -1%

Q: What about the inhibition at 1 µM ([7]; 1000 nM) of the same compound?
A: 33%
